Columns and labels:
Assay in all cases: KINOMEscan competition binding
Details in all cases: compound 10.0 µM
[1] = biological target: AXL (human) (UniProt P30530)
[2] = biological target: BMPR1B (human) (UniProt O00238)
[3] = biological target: BRSK1 (human) (UniProt Q8TDC3)
[4] = biological target: CASK (human) (UniProt O14936)
[5] = biological target: CDK4 CCND1 (human) (UniProt P11802+P24385)
[6] = biological target: CDKL1 (human) (UniProt Q00532)
[7] = biological target: DDR1 (human) (UniProt Q08345)
[8] = biological target: DDR2 (human) (UniProt Q16832)
[9] = biological target: DSTYK (human) (UniProt Q6XUX3)
[10] = system: EGFR (human), P00533 [747-751 del / S ins]
[11] = biological target: EPHA4 (human) (UniProt P54764)
[12] = biological target: EPHA8 (human) (UniProt P29322)
[13] = biological target: ERN1 (human) (UniProt O75460)
[14] = system: FLT3 (human), P36888 [R834Q]
[15] = biological target: IKBKB (human) (UniProt O14920)
[16] = biological target: JAK1 JH2 pseudokinase (human) (UniProt P23458)
[17] = biological target: KDR (human) (UniProt P35968)
[18] = biological target: LIMK1 (human) (UniProt P53667)
[19] = biological target: MAK (human) (UniProt P20794)
[20] = biological target: MAP2K7 (human) (UniProt O14733)
[21] = biological target: MAP4K3 (human) (UniProt Q8IVH8)
[22] = biological target: MAP4K5 (human) (UniProt Q9Y4K4)
[23] = biological target: MAPK12 (human) (UniProt P53778)
[24] = biological target: MAPK13 (human) (UniProt O15264)
[25] = biological target: MAPK15 (human) (UniProt Q8TD08)
[26] = biological target: MAPK7 (human) (UniProt Q13164)
[27] = biological target: MARK3 (human) (UniProt P27448)
[28] = biological target: MERTK (human) (UniProt Q12866)
[29] = biological target: NEK2 (human) (UniProt P51955)
[30] = biological target: NEK4 (human) (UniProt P51957)
[31] = biological target: NTRK2 (human) (UniProt Q16620)
[32] = biological target: NTRK3 (human) (UniProt Q16288)
[33] = biological target: PLK1 (human) (UniProt P53350)
[34] = biological target: SIK2 (human) (UniProt Q9H0K1)
[35] = biological target: SIK3 (human) (UniProt Q9Y2K2)
[36] = biological target: SLK (human) (UniProt Q9H2G2)
[37] = biological target: SRPK1 (human) (UniProt Q96SB4)
[38] = biological target: STK25 (human) (UniProt O00506)
[39] = biological target: TLK2 (human) (UniProt Q86UE8)
[40] = biological target: YSK4 (human) (UniProt Q56UN5)
YSK4 (human), sequence (Q56UN5 whole entry, looked up): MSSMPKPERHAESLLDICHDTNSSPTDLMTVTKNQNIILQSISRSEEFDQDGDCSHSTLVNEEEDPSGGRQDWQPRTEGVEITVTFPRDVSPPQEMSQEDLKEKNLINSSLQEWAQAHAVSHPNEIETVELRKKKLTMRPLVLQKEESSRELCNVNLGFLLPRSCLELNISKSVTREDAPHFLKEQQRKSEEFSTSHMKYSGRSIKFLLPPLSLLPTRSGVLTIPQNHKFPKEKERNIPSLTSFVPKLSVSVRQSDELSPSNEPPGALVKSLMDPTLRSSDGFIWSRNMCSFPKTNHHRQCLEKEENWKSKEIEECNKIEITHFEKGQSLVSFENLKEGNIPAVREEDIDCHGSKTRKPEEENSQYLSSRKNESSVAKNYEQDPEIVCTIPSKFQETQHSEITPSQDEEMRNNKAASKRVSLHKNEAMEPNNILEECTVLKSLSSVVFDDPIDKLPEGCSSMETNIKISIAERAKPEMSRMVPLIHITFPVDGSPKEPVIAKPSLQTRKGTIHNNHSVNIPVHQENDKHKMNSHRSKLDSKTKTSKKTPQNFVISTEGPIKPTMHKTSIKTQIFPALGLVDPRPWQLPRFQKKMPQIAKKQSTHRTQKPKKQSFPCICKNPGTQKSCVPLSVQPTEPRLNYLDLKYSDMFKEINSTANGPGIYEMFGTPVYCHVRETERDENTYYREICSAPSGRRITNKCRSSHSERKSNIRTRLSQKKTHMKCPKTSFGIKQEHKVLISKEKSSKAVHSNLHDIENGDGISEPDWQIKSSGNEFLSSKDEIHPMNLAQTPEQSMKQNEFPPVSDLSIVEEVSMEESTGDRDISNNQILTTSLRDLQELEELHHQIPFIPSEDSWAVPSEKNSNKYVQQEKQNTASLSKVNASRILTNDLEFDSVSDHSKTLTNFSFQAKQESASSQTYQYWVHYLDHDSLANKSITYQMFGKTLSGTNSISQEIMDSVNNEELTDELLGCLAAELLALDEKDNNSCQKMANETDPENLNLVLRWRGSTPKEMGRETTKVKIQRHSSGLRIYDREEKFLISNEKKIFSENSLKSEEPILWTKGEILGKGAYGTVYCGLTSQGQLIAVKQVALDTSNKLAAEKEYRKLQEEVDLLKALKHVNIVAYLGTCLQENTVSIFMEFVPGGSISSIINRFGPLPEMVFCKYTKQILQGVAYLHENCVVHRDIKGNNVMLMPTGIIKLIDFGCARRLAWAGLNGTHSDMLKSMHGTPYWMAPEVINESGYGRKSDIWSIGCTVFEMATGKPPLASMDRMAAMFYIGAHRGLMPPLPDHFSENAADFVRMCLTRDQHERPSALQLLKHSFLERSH

MARK3 (human), sequence (P27448 whole entry, looked up): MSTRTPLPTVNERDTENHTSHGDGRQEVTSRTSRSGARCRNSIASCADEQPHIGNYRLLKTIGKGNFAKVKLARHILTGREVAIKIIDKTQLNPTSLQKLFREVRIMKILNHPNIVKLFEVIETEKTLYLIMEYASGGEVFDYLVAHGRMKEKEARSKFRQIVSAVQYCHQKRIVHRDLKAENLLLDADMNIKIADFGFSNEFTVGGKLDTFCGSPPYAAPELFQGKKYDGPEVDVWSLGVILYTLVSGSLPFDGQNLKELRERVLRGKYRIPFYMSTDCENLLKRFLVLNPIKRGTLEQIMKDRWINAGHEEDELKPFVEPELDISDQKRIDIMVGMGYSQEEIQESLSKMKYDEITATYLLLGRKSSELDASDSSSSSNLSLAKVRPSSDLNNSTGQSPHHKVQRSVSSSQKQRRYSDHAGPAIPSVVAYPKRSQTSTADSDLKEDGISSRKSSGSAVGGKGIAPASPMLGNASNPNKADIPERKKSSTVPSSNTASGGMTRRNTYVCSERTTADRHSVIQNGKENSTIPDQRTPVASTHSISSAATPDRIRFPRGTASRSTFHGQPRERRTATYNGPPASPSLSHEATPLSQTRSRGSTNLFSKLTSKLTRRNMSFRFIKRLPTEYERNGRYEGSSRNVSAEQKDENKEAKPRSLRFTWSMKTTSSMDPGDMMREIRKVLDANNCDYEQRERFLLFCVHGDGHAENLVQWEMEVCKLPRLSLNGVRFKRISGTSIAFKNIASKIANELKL
NTRK2 (human), sequence (Q16620 whole entry, looked up): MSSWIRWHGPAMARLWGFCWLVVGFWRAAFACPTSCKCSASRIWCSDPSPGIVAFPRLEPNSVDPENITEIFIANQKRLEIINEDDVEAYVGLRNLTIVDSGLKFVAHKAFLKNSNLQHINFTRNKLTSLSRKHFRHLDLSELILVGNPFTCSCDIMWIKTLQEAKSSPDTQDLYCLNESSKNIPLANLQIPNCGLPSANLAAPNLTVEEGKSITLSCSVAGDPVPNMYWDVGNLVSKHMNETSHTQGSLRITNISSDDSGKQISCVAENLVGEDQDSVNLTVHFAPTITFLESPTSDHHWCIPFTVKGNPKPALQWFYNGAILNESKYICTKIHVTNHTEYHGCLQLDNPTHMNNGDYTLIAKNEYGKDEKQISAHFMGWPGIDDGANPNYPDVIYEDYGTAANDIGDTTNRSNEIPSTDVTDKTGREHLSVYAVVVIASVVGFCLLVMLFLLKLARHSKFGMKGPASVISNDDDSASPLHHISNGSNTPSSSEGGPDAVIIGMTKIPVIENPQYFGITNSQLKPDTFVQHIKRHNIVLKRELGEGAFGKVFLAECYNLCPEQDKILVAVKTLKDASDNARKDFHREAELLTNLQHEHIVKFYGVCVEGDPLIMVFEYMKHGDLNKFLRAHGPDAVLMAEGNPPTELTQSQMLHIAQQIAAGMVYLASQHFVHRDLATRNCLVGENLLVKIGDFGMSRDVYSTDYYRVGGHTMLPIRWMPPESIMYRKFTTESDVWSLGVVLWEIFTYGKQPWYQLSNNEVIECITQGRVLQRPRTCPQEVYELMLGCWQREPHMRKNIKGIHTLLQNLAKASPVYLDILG
MAP2K7 (human), sequence (O14733 whole entry, looked up): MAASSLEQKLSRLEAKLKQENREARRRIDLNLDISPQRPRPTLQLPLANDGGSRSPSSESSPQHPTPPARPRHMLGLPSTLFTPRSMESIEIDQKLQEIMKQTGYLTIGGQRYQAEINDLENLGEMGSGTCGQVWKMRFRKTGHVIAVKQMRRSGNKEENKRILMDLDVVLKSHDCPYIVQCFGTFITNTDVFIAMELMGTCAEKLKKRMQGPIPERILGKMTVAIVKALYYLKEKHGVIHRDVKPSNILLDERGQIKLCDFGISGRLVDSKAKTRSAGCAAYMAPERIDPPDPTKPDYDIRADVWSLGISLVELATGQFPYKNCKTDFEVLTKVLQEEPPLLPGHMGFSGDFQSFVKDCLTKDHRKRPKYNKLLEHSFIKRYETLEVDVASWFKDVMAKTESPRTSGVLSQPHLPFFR
DDR2 (human), sequence (Q16832 whole entry, looked up): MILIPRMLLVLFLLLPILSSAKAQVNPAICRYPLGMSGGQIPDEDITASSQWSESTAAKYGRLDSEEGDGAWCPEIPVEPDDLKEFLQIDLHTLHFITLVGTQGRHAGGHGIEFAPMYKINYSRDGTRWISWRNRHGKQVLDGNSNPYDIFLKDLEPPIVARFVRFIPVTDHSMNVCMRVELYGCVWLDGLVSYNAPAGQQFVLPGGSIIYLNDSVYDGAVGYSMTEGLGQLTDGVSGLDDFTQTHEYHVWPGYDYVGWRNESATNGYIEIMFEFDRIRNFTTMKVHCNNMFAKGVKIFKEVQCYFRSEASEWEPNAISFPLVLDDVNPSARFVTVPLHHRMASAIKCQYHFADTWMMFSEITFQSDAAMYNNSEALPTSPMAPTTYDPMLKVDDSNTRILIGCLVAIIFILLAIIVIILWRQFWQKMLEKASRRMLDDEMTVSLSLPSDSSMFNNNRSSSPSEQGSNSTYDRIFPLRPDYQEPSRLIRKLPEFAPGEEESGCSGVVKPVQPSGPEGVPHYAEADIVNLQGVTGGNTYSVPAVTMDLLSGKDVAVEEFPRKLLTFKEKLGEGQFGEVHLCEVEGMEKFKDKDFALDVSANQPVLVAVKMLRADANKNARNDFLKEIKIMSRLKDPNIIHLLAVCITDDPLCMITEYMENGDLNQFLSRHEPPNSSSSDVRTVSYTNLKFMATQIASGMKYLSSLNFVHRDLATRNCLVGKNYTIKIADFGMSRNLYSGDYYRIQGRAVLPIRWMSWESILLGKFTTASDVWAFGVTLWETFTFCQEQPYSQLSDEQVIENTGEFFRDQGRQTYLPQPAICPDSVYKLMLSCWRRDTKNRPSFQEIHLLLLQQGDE
CDKL1 (human), sequence (Q00532 whole entry, looked up): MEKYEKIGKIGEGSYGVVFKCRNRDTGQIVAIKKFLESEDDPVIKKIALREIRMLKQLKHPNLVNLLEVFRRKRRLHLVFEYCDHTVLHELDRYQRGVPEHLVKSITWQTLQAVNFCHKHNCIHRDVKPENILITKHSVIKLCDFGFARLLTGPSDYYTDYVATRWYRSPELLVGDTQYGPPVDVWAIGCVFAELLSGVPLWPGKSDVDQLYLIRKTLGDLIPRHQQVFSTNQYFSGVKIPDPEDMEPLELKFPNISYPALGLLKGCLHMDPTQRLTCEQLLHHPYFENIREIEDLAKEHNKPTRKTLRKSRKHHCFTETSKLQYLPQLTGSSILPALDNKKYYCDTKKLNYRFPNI
STK25 (human), sequence (O00506 whole entry, looked up): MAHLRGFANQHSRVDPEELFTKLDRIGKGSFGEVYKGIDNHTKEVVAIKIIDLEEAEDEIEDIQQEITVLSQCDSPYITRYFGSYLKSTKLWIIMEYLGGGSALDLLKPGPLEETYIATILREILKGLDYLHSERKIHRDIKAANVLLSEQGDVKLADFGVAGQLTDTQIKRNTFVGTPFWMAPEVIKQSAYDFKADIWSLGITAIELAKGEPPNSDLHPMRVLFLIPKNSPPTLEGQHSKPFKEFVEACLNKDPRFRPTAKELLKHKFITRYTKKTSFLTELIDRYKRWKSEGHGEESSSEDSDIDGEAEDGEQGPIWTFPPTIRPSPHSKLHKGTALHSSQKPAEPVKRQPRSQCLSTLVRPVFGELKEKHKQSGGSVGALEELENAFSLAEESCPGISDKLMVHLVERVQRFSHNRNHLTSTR

| Compound | kinase still bound, per cent of control [1] [%] | kinase still bound, per cent of control [2] [%] | kinase still bound, per cent of control [3] [%] | kinase still bound, per cent of control [4] [%] | kinase still bound, per cent of control [5] [%] | kinase still bound, per cent of control [6] [%] | kinase still bound, per cent of control [7] [%] | kinase still bound, per cent of control [8] [%] | kinase still bound, per cent of control [9] [%] | kinase still bound, per cent of control [10] [%] | kinase still bound, per cent of control [11] [%] | kinase still bound, per cent of control [12] [%] | kinase still bound, per cent of control [13] [%] | kinase still bound, per cent of control [14] [%] | kinase still bound, per cent of control [15] [%] | kinase still bound, per cent of control [16] [%] | kinase still bound, per cent of control [17] [%] | kinase still bound, per cent of control [18] [%] | kinase still bound, per cent of control [19] [%] | kinase still bound, per cent of control [20] [%] | other results |
| --- | --- | --- | --- | --- | --- | --- | --- | --- | --- | --- | --- | --- | --- | --- | --- | --- | --- | --- | --- | --- | --- |
| COc1cc2ncnc(-n3nc(-c4ccccn4)nc3N)c2cc1OC | 6 | 14 | 18 | 26 | 47 | 21 | 88 | 22 | 19 | 77 | 34 | 59 | 46 | 22 | 45 | 0.4 | 52 | 22 | 100 | 77 | kinase still bound, per cent of control [21]: 53%; kinase still bound, per cent of control [22]: 45%; kinase still bound, per cent of control [23]: 21%; kinase still bound, per cent of control [24]: 100%; kinase still bound, per cent of control [25]: 0.55%; kinase still bound, per cent of control [26]: 83%; kinase still bound, per cent of control [27]: 100%; kinase still bound, per cent of control [28]: 29%; kinase still bound, per cent of control [29]: 57%; kinase still bound, per cent of control [30]: 41%; kinase still bound, per cent of control [31]: 47%; kinase still bound, per cent of control [32]: 100%; kinase still bound, per cent of control [33]: 22%; kinase still bound, per cent of control [34]: 61%; kinase still bound, per cent of control [35]: 83%; kinase still bound, per cent of control [36]: 28%; kinase still bound, per cent of control [37]: 83%; kinase still bound, per cent of control [38]: 33%; kinase still bound, per cent of control [39]: 40%; kinase still bound, per cent of control [40]: 0.45% |
| COc1cc(C(=O)N2CCC(N3CCN(C)CC3)CC2)ccc1Nc1ncc2c(n1)N(C)c1ccccc1C(=O)N2C | 100 | 100 | 81 | 85 | 100 | 78 | 100 | 100 | 16 | 100 | 89 | 80 | 59 | 100 | 89 | 92 | 84 | 95 | 72 | 100 | kinase still bound, per cent of control [21]: 71%; kinase still bound, per cent of control [22]: 100%; kinase still bound, per cent of control [23]: 76%; kinase still bound, per cent of control [24]: 72%; kinase still bound, per cent of control [25]: 100%; kinase still bound, per cent of control [26]: 0.05%; kinase still bound, per cent of control [27]: 98%; kinase still bound, per cent of control [28]: 100%; kinase still bound, per cent of control [29]: 100%; kinase still bound, per cent of control [30]: 95%; kinase still bound, per cent of control [31]: 100%; kinase still bound, per cent of control [32]: 100%; kinase still bound, per cent of control [33]: 0.7%; kinase still bound, per cent of control [34]: 98%; kinase still bound, per cent of control [35]: 100%; kinase still bound, per cent of control [36]: 100%; kinase still bound, per cent of control [37]: 94%; kinase still bound, per cent of control [38]: 68%; kinase still bound, per cent of control [39]: 99%; kinase still bound, per cent of control [40]: 99% |
| CN(C)C/C=C/C(=O)Nc1ccc(C(=O)Nc2cccc(Nc3nccc(-c4cccnc4)n3)c2)cc1 | 80 | 28 | 100 | 98 | 100 | 41 | 100 | 64 | 100 | 87 | 100 | 91 | 70 | 83 | 65 | 0.6 | 36 | 60 | 100 | 80 | kinase still bound, per cent of control [21]: 57%; kinase still bound, per cent of control [22]: 59%; kinase still bound, per cent of control [23]: 76%; kinase still bound, per cent of control [24]: 100%; kinase still bound, per cent of control [25]: 23%; kinase still bound, per cent of control [26]: 100%; kinase still bound, per cent of control [27]: 100%; kinase still bound, per cent of control [28]: 100%; kinase still bound, per cent of control [29]: 1.1%; kinase still bound, per cent of control [30]: 100%; kinase still bound, per cent of control [31]: 69%; kinase still bound, per cent of control [32]: 65%; kinase still bound, per cent of control [33]: 100%; kinase still bound, per cent of control [34]: 90%; kinase still bound, per cent of control [35]: 64%; kinase still bound, per cent of control [36]: 98%; kinase still bound, per cent of control [37]: 26%; kinase still bound, per cent of control [38]: 83%; kinase still bound, per cent of control [39]: 100%; kinase still bound, per cent of control [40]: 0.1% |

Reference: the kinase profiling compilation of Christmann-Franck et al. (2016)
